According to PubChem BioAssay (NCI):
Where “and” joins values, the source holds several entries; their conditions need not be identical. Equal entries are not always repeated.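 Cells were grown in 96-well plates and exposed to each compound for 48 hours at five concentrations; endpoints were interpolated linearly between bracketing concentrations, or set to the highest concentration if not reached. Here, GI50 denotes the concentration required for 50% inhibition of growth. At the TGI there is no net growth.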

What was measured:
Experiment in all cases: DTP human tumour cell line panel, 48 h
HT29 colon = tested on: HT29 colon
K-562 leukemia = tested on: K-562 leukemia
MDA-MB-435 = tested on: MDA-MB-435
NCI-H226 lung = tested on: NCI-H226 lung
OVCAR-8 ovarian = tested on: OVCAR-8 ovarian
SF-295 CNS = tested on: SF-295 CNS
DLD-1 colon = tested on: DLD-1 colon
SNB-78 CNS = tested on: SNB-78 CNS
DMS 114 small cell lung = tested on: DMS 114 small cell lung

Structure (SMILES)	GI50 (HT29 colon)	TGI (HT29 colon)	GI50 (K-562 leukemia)	TGI (K-562 leukemia)	GI50 (MDA-MB-435)	TGI (MDA-MB-435)	GI50 (NCI-H226 lung)	TGI (NCI-H226 lung)	GI50 (OVCAR-8 ovarian)	TGI (OVCAR-8 ovarian)	GI50 (SF-295 CNS)	TGI (SF-295 CNS)	TGI (DLD-1 colon) [µM]	TGI (SNB-78 CNS) [µM]	GI50 (DLD-1 colon) [µM]	GI50 (SNB-78 CNS) [µM]	TGI (DMS 114 small cell lung) [µM]
CCc1c2c(nc3ccc(OC(=O)OCc4ccc(B5OC(C)(C)C(C)(C)O5)cc4)cc13)-c1cc3c(c(=O)n1C2)COC(=O)[C@]3(O)CC	0.0436 µM	> 100 µM	0.0368 µM	> 100 µM	0.0523 µM	1.53 µM	0.011 µM	0.157 µM	< 0.0111 µM	> 71.4 µM	< 0.01 µM	1.48 µM					
CCCCNP1(NCCCC)=NP(NCCCC)(NCCCC)=NP(NCCCC)(NCCCC)=NP(NCCCC)(NCCCC)=N1	0.213 µM	17.7 µM	0.103 µM	3.83 µM	0.931 µM	6.51 µM	1.72 µM	7.91 µM	1.98 µM	17.4 µM	0.905 µM	5.6 µM					
O=C(O)C1C2C=CC(O2)C1C(=O)NCc1ccncc1 (centres undefined)		> 100 µM		> 100 µM		> 100 µM		> 100 µM		> 100 µM		> 100 µM					
COc1ccc(C2CC(c3ccc4ccccc4c3)=NN2c2nc(O)c(C3=c4cc(Cl)ccc4=NC3=O)s2)cc1 (centres undefined)	0.0307 µM and < 0.005 µM	0.771 µM and 0.556 µM	0.0371 µM and < 0.005 µM	1.65 µM	0.0215 µM and < 0.005 µM	0.0483 µM and < 0.005 µM	0.0208 µM	0.052 µM	0.0328 µM		0.0197 µM and < 0.005 µM	0.0491 µM and < 0.005 µM					
CC(=O)OCC1OC([S-])C(OC(C)=O)C(OC(C)=O)C1OC(C)=O.[Au+].c1ccc(CN2[CH-]N(Cc3ccccc3)C(c3ccccc3)=C2c2ccccc2)cc1	3.38 µM and 1.02 µM	12.6 µM and 4.47 µM	2.59 µM and 0.397 µM	7.8 µM and 15.1 µM	2.94 µM and 0.86 µM	10.4 µM and 3.36 µM	3.5 µM and 0.655 µM	14.3 µM and 5.74 µM	3.17 µM and 0.479 µM	11.6 µM and 4.44 µM		20.3 µM and 4.59 µM					
CN(CO)c1nc(N(C)CO)nc(N(C)CO)n1	26.3 µM	71.2 µM and 144 µM	27.2 µM	140 µM		40.3 µM	24.8 µM and 9.99 µM	> 70.3 µM and 21.4 µM	23.6 µM	55.6 µM and 38.4 µM		> 73.4 µM	97.2	25.3			
N#Cc1ccc(O)c(C2=NCC(c3ccc(-c4ccccc4)cc3)O2)c1 (centres undefined)	0.866 µM	24.1 µM	0.338 µM	> 100 µM	0.665 µM	51.6 µM	0.589 µM	12.7 µM	0.361 µM	13 µM	0.335 µM	11.8 µM					
C=C1C(=O)O[C@H]2[C@H]1CC/C(CNC(=O)C(C)c1ccc(CC(C)C)cc1)=C\CC[C@@]1(C)O[C@@H]21 (some centres undefined)	1.79 µM	3.66 µM	2.29 µM	10.4 µM	1.72 µM	3.76 µM	1.66 µM	3.27 µM	1.88 µM	5.96 µM	3.45 µM	14.7 µM					
CC[C@@]1(O)C(=O)OCc2c1cc1n(c2=O)Cc2cc3cccc(N)c3nc2-1	> 100 µM	> 100 µM	> 100 µM	> 100 µM			2.57 µM	27.9 µM	12.1 µM	> 100 µM	4.04 µM	23.5 µM	> 100	> 100	> 100	> 100	
COc1ccc2c(c1)C(=O)/C(=C/c1cccc(OCC(=O)c3ccc([N+](=O)[O-])cc3)c1)CO2	1.93 µM	4.6 µM	1.96 µM	> 22.4 µM	2.32 µM	7.11 µM	7.06 µM	23.3 µM	2.85 µM	9.66 µM	2.26 µM	7.1 µM					
CCC1=CCC(P(=O)(c2ccccc2)c2ccccc2)CC1C (centres undefined)		> 100 µM		> 100 µM				> 100 µM		> 100 µM		> 100 µM		> 100			> 100
N#Cc1ccc(C(=O)c2cnn(-c3ccc(F)cc3)c2N)cc1	> 25 µM	> 25 µM	> 25 µM	> 25 µM	> 25 µM	> 25 µM	> 25 µM	> 25 µM	> 25 µM	> 25 µM	> 25 µM	> 25 µM					
Cn1c2ccccc2c2c(=O)n(CCCC(=O)NCCc3cnc[nH]3)c3c(-c4ccccc4)nnn3c21	8.55 µM	17.9 µM	8.9 µM	27 µM	10.2 µM	20 µM	> 50 µM	> 50 µM	10.1 µM	20.8 µM	9.18 µM	17.8 µM					
O=C(CO)CC(=O)C(=O)Nc1cccc(C(F)(F)F)c1		> 100 µM		> 100 µM				> 100 µM		> 100 µM		> 100 µM	> 100				
Fc1ccc(-c2c(-c3ccncc3)[nH]c3cccnc23)cc1	8.18 µM	> 25 µM	> 23.1 µM	> 25 µM	> 25 µM	> 25 µM	> 15.2 µM	> 25 µM	> 25 µM	> 25 µM	> 25 µM	> 25 µM					
CN1CCN(C(=O)[C@@]2(C)CC[C@]3(C)CC[C@]4(C)C(=CC[C@@H]5[C@@]6(C)CC[C@H](OC(=O)c7cccnc7)C(C)(C)[C@@H]6CC[C@]54C)[C@@H]3C2)CC1	1.06 µM	2.69 µM	2.15 µM	6.36 µM	1.7 µM	3.19 µM	10.2 µM	24 µM	2.06 µM	4.3 µM	1.62 µM	3.05 µM					
CN(CCCCCCCCNc1ccnc2ccccc12)Cc1ccc(-c2ccc(-c3ccc(C#N)cc3)s2)cc1	0.318 µM	1.77 µM	0.0172 µM	0.107 µM	1.19 µM	2.5 µM	1.17 µM	3.17 µM	1.02 µM	4.5 µM	0.501 µM	1.26 µM					
CCCCCCCCCCCCSC1=CC(=O)C=CC1=O	27.1 µM	> 50 µM	6.44 µM	> 36.9 µM	15.6 µM	> 50 µM	6.58 µM	19 µM	1.79 µM	32.1 µM	1.44 µM	4.75 µM					
